Laboratory results from patent publication US6780887B1, “Anti-ischemic compounds” (Societe de Conseils de Recherches et d'Applications …, priority 1999, dated 2004).
“Also recorded” adds a separate entry of the source.

Columns and labels:
[1] = tested on: purified mitochondria obtained from rat livers; assay: In vitro mitochondrial respiration (stages III and IV, RCR) of purified mitochondria preincubated with compounds; assay type: biochemical; conditions: for RCR increase (*): in % relative to the control brought to 100%; for Concentration (optimum concentration at which the effect was observed): RCR increase; for Concentration of maximum/optimal effect on RCR (optimal concentration in pre-incubation): rat liver mitochondria preincubated with compound; for Effect on mitochondria RCR (in words) / Effect on respiration stage IV (in words): in vitro
Experimental: The mitochondria are isolated according to the method described by Nowicki et al., J. of Cerebral Blood Flow and Metabolism 2, p. […] The mitochondrial respiration is measured by an oxygen electrode connected to a recorder. The RCR represents the respiratory control, and represents the ratio of the oxygen consumption in the presence of an endogenous substrate (glutamate/malate) to the consumption after ADP phosphorylation in ATP.
The RCR has been subsequently calculated.

[2] = tested on: endothelial cells of the human umbilical vein; assay: Protection of ATP content in endothelial cells incubated under hypoxia; assay type: cell-based; conditions: for Average maximum protection of the decrease in ATP content induced by hypoxia: endothelial cells
Description: This variability is inherent to the experimental model. Indeed, for each experiment, a different culture is used from different umbilical cord isolated cells and there is a behaviour variability of the cells from one cord to another.

[3] = Stability in human plasma (GC); assay type: in vitro ADME; conditions: 24 hours, 37° C.
Experimental: The compounds of examples 1 and 2 have been submitted to stability tests in order to evaluate their behaviour when in contact with plasma after a 3 and 24 hour incubation at a temperature of 37° C. These tests have been performed using GC following the evolution of chromatograms of the different esters compared to an internal standard as a function of time.
The injection of GC/MF pure products has been performed in the following conditions:
injection temperature: 250° C.
initial temperature: 40° C.
final temperature: 250° C.
temperature gradient: 10° C./mn
The different compounds have been prepared as follows: 10 μl of pure compound have been dissolved in 100 μl plasma at a temperature of 37° C. The resulting solution is stirred. After a 3 or 24 hour period of time, 5 μl of internal standard (N-benzylamine) and 1 ml ether are added to the solution maintained at 37° C. The sample is centrifuged for 10 minutes at a rate of 13,000 rpm. 1 μl of the supernatant phase (ether phase) is injected in GC. The sample is then GC analyzed. […] No other peak optionally corresponding to metabolization products is observed.

[4] = tested on: neutrophil adherence to the endothelial cells; assay: Neutrophil adherence to endothelial cells incubated under hypoxia; assay type: cell-based, human; conditions: 10^−8 mol/l
Experimental: After incubation, the cells are co-incubated with a non stimulated human neutrophil suspension.

[5] = tested on: hepatic mitochondria; assay: In vivo effect on liver mitochondria RCR after treatment of rats per os for 5 days; parameters: species or system rat; conditions: for Effect on respiration stage IV (in words): liver mitochondria
Experimental: Following the treatment, the rats are sacrificed. The mitochondria are isolated from the liver and their respiratory activity is measured every 15 minutes for the 75 minutes following the isolation procedure.

[6] = tested on: heart mitochondria; assay: In vivo effect on heart mitochondria RCR after treatment of rats per os for one day; parameters: species or system rat
Experimental: The following day, the rats are sacrificed and their mitochondria are isolated from the heart. Their respiratory activity is measured every 15 minutes for the 75 minutes following the isolation procedure.

[7] = tested on: Promyelocyte cells; assay: Etoposide-induced apoptosis in promyelocyte cells; assay type: cell-based; conditions: cells incubated with etoposide
Experimental: Promyelocyte cells are incubated in the presence of apoptosis-inducing agents like the etoposide, a type II topoisomerase inhibitor. After incubation, different parameters indicative of the apoptosis are detectable: caspase activation, cytochrome C release by the mitochondria, DNA fragmentation, etc.

[8] = 10^−7 M (optimum concentration)
[9] = 10^−6 M (optimum concentration)
[10] = endothelial cells under hypoxia

Molecule: CCOC(=O)CN(C)C(=O)C1CCCCC1 [Ethyl N-methyl-N-cyclohexamido ethanoate, Ethyl N-methyl -N-cyclohexamido Ethanoate]
- RCR increase (*) [1, 8]: 15%
- Concentration (optimum concentration at which the effect was observed) ([1]; rat liver mitochondria): 10^−7 M

Molecule: O=C(CC(=O)Nc1ccccc1)Nc1ccccc1 [N,N′-diphenylmalonamide, N-N′-diphenyl malonamide]
- RCR increase (*) [1, 8]: 5%
- Concentration (optimum concentration at which the effect was observed) ([1]; rat liver mitochondria): 10^−7 M

Molecule: O=C(CC(=O)O[C@@H]1C=CCC1)O[C@@H]1C=CCC1 [di-(S)-cyclopenten-2-yl malonate, di-(S)-2-cyclopenten-2-yl malonate]
- RCR increase (*) [1, 9]: 18%
- Concentration (optimum concentration at which the effect was observed) ([1]; rat liver mitochondria): 10^−6 M

Molecule: C=CCOC(=O)C12CC1COC2=O (centres unmarked) [example 2, 2-propenyl-3-Oxa-2-Oxobicyclo[3.1.0]-hexane-1-carboxylate]
- Optimal concentration in pre-incubation (mass concentration) [1]: 0.0183 µg/mL
- Concentration of maximum/optimal effect on RCR (optimal concentration in pre-incubation) [1]: 10^−7 mol/l
- Effect on mitochondria RCR (in words) ([1]; rat liver mitochondria): have an action on the RCR
- Effect on respiration stage IV (in words) ([1]; rat liver mitochondria): decrease effect
- Average maximum protection of the decrease in ATP content induced by hypoxia ([2]; 10^−4 mol/l): 92.5%
- Concentration at which ATP protection becomes negligible [2, 10]: 10^−6 mol/l
- Stability in human plasma (GC peak of compound) [3]: not found any more
- Maximum inhibition of hypoxia induced neutrophil adherence increase [4]: 71%
- Activity on liver mitochondria RCR (in words) ([5]; 5 days, 0.18 mg/kg): weakly active
- Mitochondria RCR increase (maximum) ([5]; 5 days, 3.6 mg/kg, liver): 17%
- Effect on respiration stage IV (in words) ([5]; 5 days): decrease
- Heart mitochondria RCR increase ([6]; one day treatment, 3.6 mg/kg): 56%

Molecule: Dicyclopenten-2-yl malonate [example 1]
- Concentration at which the RCR effect becomes negligible ([1]; rat liver mitochondria): 10^−9 mol/l
- Concentration of maximum/optimal effect on RCR (optimal concentration in pre-incubation) [1]: 10^−6 mol/l
- Effect on mitochondria RCR (in words) ([1]; rat liver mitochondria): have an action on the RCR; also recorded: significatively increases
- Effect on respiration stage IV (in words) ([1]; rat liver mitochondria): strongly decreases
- Average maximum protection of the decrease in ATP content induced by hypoxia ([2]; 10^−4 mol/l to 10^−5 mol/l): 92.1%
- Concentration at which ATP protection becomes negligible [2, 10]: 10^−8 mol/l
- Protection of the decrease in ATP content induced by hypoxia (in words) [2, 10]: able to protect reproducibly
- Stability in human plasma (GC peak of compound) [3]: still observed
- Hepatic mitochondria RCR increase ([5]; 5 day treatment, 2.36 mg/kg): 25%
- RCR versus control (in words) ([5]; 5 days, dose higher than 2.36 mg/kg): falls slightly below the control values
- Effect on respiration stage IV (in words) ([5]; 5 days): clear decrease
- Heart mitochondria RCR increase ([6]; one-day treatment, 2.36 mg/kg): 41%
- Apoptosis induction (in words) [7]: apoptosis induction inhibition is observed
- Caspase 3 activation [7]: inhibited
- Cytochrome C release by the mitochondria [7]: inhibited
- DNA fragmentation [7]: inhibited

Molecule: Ethyl 2,6-dimethyl-N-phenylamido Ethanoate
- RCR increase (*) [1, 9]: 13%
- Concentration (optimum concentration at which the effect was observed) ([1]; rat liver mitochondria): 10^−6 M

Molecule: Ethyl N-phenylamido Ethanoate [Ethyl N-phenlyamido ethanoate]
- RCR increase (*) [1, 9]: 6.6%
- Concentration (optimum concentration at which the effect was observed) ([1]; rat liver mitochondria): 10^−6 M
